# From ChEMBL document CHEMBL1201862, “PubChem BioAssay data set” (2004)
# The source made the active and inactive calls.
# Assays:
# cells [1] = assay type: functional, cell-based
# [2] = HEK-293T cell viability reduction – luminescence, B-cell screen hits, cytotoxicity control for BCR NF-kB inhibitor project, dose response (AID 489021); assay type: functional, cell-based;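 note: HEK-293T cells carrying an NF-kB luciferase reporter; cells exposed to compound for about 14 hours before viability readout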
# [3] = Luminescence Cell-Based Dose Response HTS to Identify Inhibitors of 5'UTR Stem-Loop Driven Prion Protein mRNA Translation in H4 Neuroglioblastoma Cells. [Related pubchem assays: 1827 (Project Summary), 1813 (Primary HTS)]; assay type: functional
# [4] = luciferase reporter signal reduction – luminescence, H4-C neuroglioblastoma cells, dose response (AID 2458); assay type: functional, cell-based;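 note: H4 neuroglioblastoma cells stably carrying a luciferase reporter gene fusion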
# [5] = alpha-synuclein stem-loop luciferase translation blockers – H4 neuroglioma cells, luminescence, confirmation (AID 1988); assay type: functional, cell-based
# [6] = luciferase reporter signal suppression in cells – H4 neuroglioma cells, luminescence, dose response (AID 1990); assay type: functional, cell-based
# [7] = alpha-synuclein stem-loop translation blockers – luminescence, H4 neuroglioblastoma cells, dose confirmation, confirmation (AID 2454); assay type: functional, cell-based;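 note: H4 neuroglioblastoma cells carrying an alpha-synuclein 5'UTR luciferase reporter; potency for inhibition of the luciferase signal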
# [8] = M. tuberculosis growth inhibition, HTS (AID 449762); assay type: functional
# [9] = target: 5-hydroxytryptamine receptor 2A (Mus musculus, UniProt P35363); assay type: functional, cell-based;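 note: CHO-K1 cells with tagged receptor and beta-arrestin; agonist potency measured as compound-induced activation of the receptor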
# Mu-type opioid receptor = Mu-type opioid receptor (Homo sapiens, UniProt P35372); assay type: functional, cell-based;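 note: U2OS cells with beta-arrestin recruitment to OPRM1 by beta-gal complementation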
# [10] = microbe, parasite or virus in culture; assay type: functional; details: Mycobacterium tuberculosis
# [11] = HEK-293T viability loss after treatment – luminescence, T-cell screen hits, cytotoxicity control for TCR NF-kB inhibitor project, dose response (AID 489026); assay type: functional, cell-based;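 note: cells exposed to compound about 14 hours before the viability readout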
# [12] = Luminescence-based dose response cell-based high throughput screening assay for cytotoxic compounds using the IEC-6 intestinal epithelial cell line. [Related pubchem assays: 1858 (Summary AID.), 1825 (Counterscreen.), 1907 (Confirmation screen.)]; assay type: functional
# [13] = antiviral protection against BTV-induced cell death – arbovirus, BSR cells, confirmation (AID 1250); assay type: functional;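 note: protection from viral cytopathic effect measured as cell viability by ATP luminescence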
# Genome polyprotein = Genome polyprotein (Hepatitis C virus, UniProt Q2Q167); test: disruption of hepatitis C core self-association – biochemical, TR-FRET, dose response (AID 2159); parameters: species or system Hepacivirus hominis;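 note: blocks dimerization of HCV core protein measured by TR-FRET between tagged core106 pairs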
# H9c2 = test: cells; assay type: functional, cell-based; details: Rattus norvegicus, H9c2, Myocardium;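 note: confirmatory concentration-response retest of ultra-high-throughput screening hits for modulation of myocardial damage; cell death induced by hydrogen peroxide oxidative stress; compound pretreatment for 60 min then peroxide exposure for 2 h; potency is for protecting the cells against peroxide damage rather than for killing them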
# [14] = viability of uninfected HEp-2 cells – cell-based, HTS, cytotoxicity control for RSV inhibitor project, dose response (AID 2410); assay type: functional; details: human respiratory syncytial virus
# cells [15] = test: cells
# Ephrin type-A receptor 4 = Ephrin type-A receptor 4 (Mus musculus, UniProt Q03137); test: EphA4 ligand-binding antagonists – biochemical, colorimetric, mouse EphA4, primary screen (AID 689); assay type: functional
# Chain of Ephrin type-A receptor 4 (Q03137 whole entry): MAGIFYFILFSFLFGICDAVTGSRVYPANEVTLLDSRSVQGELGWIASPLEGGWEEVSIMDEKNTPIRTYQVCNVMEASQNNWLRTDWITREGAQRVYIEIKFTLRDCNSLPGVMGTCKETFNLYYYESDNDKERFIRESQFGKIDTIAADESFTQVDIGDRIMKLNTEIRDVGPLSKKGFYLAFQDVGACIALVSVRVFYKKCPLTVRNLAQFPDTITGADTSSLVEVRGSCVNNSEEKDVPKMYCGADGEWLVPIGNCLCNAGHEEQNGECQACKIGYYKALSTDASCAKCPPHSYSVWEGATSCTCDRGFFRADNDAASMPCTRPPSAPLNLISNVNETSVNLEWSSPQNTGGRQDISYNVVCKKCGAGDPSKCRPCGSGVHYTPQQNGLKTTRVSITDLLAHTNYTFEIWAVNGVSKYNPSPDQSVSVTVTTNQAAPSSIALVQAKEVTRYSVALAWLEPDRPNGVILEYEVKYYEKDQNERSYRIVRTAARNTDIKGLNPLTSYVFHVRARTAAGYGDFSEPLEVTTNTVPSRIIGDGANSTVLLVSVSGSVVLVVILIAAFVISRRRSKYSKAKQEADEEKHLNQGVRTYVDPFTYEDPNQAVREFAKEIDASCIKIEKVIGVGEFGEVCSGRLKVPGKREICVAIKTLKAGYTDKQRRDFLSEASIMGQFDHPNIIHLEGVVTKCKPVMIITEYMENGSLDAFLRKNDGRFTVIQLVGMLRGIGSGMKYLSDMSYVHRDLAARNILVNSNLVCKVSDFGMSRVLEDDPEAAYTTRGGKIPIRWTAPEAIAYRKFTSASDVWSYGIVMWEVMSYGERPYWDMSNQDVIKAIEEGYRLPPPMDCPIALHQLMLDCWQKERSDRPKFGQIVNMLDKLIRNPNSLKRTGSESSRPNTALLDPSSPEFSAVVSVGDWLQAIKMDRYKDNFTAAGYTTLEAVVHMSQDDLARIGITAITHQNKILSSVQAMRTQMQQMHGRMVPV
# Chain of 5-hydroxytryptamine receptor 2A (P35363 whole entry): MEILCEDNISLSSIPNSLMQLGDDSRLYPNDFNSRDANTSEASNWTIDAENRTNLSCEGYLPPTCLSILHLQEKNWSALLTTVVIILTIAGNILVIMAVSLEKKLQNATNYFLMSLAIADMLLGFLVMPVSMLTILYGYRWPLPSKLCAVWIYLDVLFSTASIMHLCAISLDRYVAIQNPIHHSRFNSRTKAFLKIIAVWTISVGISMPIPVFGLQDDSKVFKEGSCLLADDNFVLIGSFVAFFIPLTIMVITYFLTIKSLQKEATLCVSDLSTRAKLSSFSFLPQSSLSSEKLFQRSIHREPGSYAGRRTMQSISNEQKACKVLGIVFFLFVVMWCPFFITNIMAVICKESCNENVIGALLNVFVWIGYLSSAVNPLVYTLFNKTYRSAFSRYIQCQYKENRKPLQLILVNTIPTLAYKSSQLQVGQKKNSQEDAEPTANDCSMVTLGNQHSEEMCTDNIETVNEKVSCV
# Chain of Genome polyprotein (Q2Q167 whole entry): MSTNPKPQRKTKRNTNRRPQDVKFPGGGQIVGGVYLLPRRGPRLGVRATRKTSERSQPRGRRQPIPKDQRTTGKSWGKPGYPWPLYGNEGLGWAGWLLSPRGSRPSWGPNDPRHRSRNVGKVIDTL
# Chain of Mu-type opioid receptor (P35372 whole entry): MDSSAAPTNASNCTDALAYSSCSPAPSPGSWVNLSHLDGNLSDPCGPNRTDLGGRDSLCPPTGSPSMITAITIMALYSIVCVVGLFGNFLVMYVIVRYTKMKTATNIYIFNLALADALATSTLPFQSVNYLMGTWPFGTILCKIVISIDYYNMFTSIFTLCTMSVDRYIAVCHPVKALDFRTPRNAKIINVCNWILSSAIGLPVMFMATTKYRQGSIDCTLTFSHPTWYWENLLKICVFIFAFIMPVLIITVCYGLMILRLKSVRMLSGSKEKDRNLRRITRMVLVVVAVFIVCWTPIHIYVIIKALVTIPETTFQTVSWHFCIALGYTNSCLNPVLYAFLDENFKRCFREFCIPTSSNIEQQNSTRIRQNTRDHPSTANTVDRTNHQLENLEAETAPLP
structure (smiles),measurement,setting,value
CCOc1ccc(-c2cc(CCCC(=O)NCc3ccco3)no2)cc1,EC50,cells [1],2.78 µM (active)
same,IC50,[2],> 80 µM (inactive)
same,EC50,[3],17.4 µM (active)
same,EC50,[4],1.22 µM (active)
same,EC50,[5],< 0.1 µM (active)
same,EC50,[6],14.5 µM (active)
same,EC50,[7],1.87 µM (active)
CC(C)C[C@H]1C(=O)N2CCC[C@H]2[C@]2(O)O[C@](NC(=O)C3C=C4c5cccc6[nH]c(Br)c(c56)C[C@H]4N(C)C3)(C(C)C)C(=O)N12 (stereo partly specified),IC50,[8],> 100 µM (active)
same,EC50,[9],0.0038 µM (active)
same,EC50,Mu-type opioid receptor,92.5 µM (inactive)
same,CC50,[10],> 40 µM (active)
CCCCCC(=O)N[C@@H](c1ccccc1)[C@@H](O)C(=O)O[C@H]1C[C@@]2(O)[C@@H](OC(=O)c3ccccc3)C3[C@](C)(C(=O)[C@H](OC(C)=O)C(=C1C)C2(C)C)[C@@H](O)C[C@H]1OC[C@@]31OC(C)=O (stereo partly specified),EC50,cells [1],0.253 µM (active)
same,IC50,[11],> 80 µM (inactive)
same,EC50,[4],0.229 µM (active)
same,EC50,[5],< 0.1 µM (active)
same,EC50,[6],< 0.1 µM (active)
same,EC50,[7],0.402 µM (active)
same,IC50,[12],0.0618 µM (active)
COCCn1c(-c2ccccc2)cnc1SCC(=O)Nc1cccc2ccccc12,IC50,[13],27.4 µM (active)
Cc1cc(C(=O)N/N=C2\CC(=O)c3ccccc32)c(C)n1-c1ccc(F)cc1,IC50,Genome polyprotein,> 49.8 µM (not active)
COc1ccccc1NC(=O)COc1cccc2c1CCNC2=O,IC50,H9c2,8.7 µM (active)
same,CC50,[14],39.1 µM (active)
same,IC50,cells [15],28.8 µM (active)
Nc1ccc(Br)c2c1C(=O)c1ccccc1C2=O,IC50,Ephrin type-A receptor 4,13.5 µM (active)
CCC(C)[C@H](NC(=O)OC(C)(C)C)C(=O)N/N=C/c1ccc2cc(OC)ccc2n1 (stereo partly specified),CC50,[14],36.2 µM (active)
same,IC50,cells [15],39 µM (active)
